{
  "source": "patent US20190169134A1",
  "about": "“NOVEL CLASS OF QUINOLONE HETEROCYCLIC AROMATIC MOLECULES FOR CANCER TREATMENT” (RenoTarget Therapeutics, Inc., priority 2016, published 2019)",
  "format_in_all_cases": "cell-based, human",
  "key": {"HCC827 TR cells": {"test_system": "HCC827 TR cells", "assay": "Combination analysis of cell growth inhibition (SRB, CalcuSyn)", "description": "As described in Example 2.1. Two cell lines, HCC827-P and HCC827-TR (Tarceva-resistant HCC727 cells-an EGFRi resistant cell line with MET amplification) (Wang, Pursell et al. 2013) were used in the combination study. Exponentially growing HC[…] and HCC827-TR cells were seeded into 96-wells dishes at density of 3,000 cells per well. Twenty-four hours later, the cells were exposed concurrently to serial dilution of Reno647 or Carboplatin or Camptothecin alone or in combination at a ratio of 1:50 with Carboplatin or at ratio 1:1 with Camptothecin for 3 days. Reno647 were concurrently and sequentially with paclitaxel (Taxol) at ratio of 200:1 for 6 days. For sequential exposure, the cells were treated with Reno647 for 3 days, after removal of the drug containing medium, the cells were treated with Taxol for additional 3 days, or the cells were treated by Taxol first followed by the treatment with Reno 647. After incubation for 6 days, the cell growth was measured by SRB as described previously in Example 2.1 section, and the percentages of inhibition (1-T/C) % were calculated, and data were analyzed by a PC program, CalcuSyn, Biosoft (edited by T.-C. Chou, Memorial Sloan-Kettering Cancer Center, New York, and M. P. Hayball, at Cambridge, UK, 1996). The computer-calculated combination index (CI) was used to judge the outcomes of a combination: […] It has long been accepted that chemotherapy provided some benefit for patients with non-small-cell lung cancer (NSCLC) in terms of quality of life and symptomatology as well as modest improvements in survival. […] Cell growth was determined by SRB as described above. […] Cell growth was determined by SRB as described above. […] (FIG. 5 C&D, CIs were well below 1 at effective concentration), particularly at higher concentration where Reno647 achieves its effective inhibition on […]. […] However, induction of EGFR activation mediated by Taxol may compromise activity of EGFR inhibitors. To examine our hypothesis, Taxol was combined with Reno647 in three different sequential exposures: • Combination 1: exposure of HC[…] or TR cells to Reno647+Taxol simultaneously for 6 days. • Combination 2: exposure of the cells to Reno647 first for 3 days followed by treatment with Taxol for an additional 3 days, or • Combination 3: exposure of the cells to Taxol first for 3 days followed by treatment with Reno647 for an additional 3 days. Exposure of the cells to either Reno647 or Taxol served as controls. After exposure, cell growth was determined by SRB and analyzed as described in above section."}, "tested cancer cell lines": {"test_system": "tested cancer cell lines", "assay": "Cell growth inhibition by SRB method, tested cancer cell lines overall", "details": "data not provided", "text": "Six human cancer cell lines have been used to evaluate effects of the compounds on proliferation of cancer cells. These cell lines include HCC827-P (or HCC827 parent cells), human non-small lung cancer cells, Parent NSCLC HCC827 cell line (which harbors EGFR gene amplification, Exon 19 (E19) deletion, and Exon 21 mutation (Wang, Ramakrishnan et al. 2010), and is an EGFRi sensitive cell line (Kim, Kim et al. 2010)); HCC827-TR16 (Tarceva-resistant HCC727 cell line), HCC827-OR16 (AZD9291-resistant HCC727 cell line), LNCaP (human prostate cancer cells—a hormonal-therapy sensitive cell line (Wang, Liu et al. 1997)); 22RV1 (human prostate cancer cells—a hormonal-therapy resistant cell line (Sramkoski, Pretlow et al. 1999)); and ACHN (human renal adenocarcinoma cells (Park, Jung et al. 2003)). LNCaP cells and 22RV1 cells were purchased from the American Type Culture Collection (Rockville, Md.) and others were gifts of friends.\nAll cell lines were maintained in RPMI-1640 (GIBCO, Gaithersburg, Md.) with 10% heat-inactivated bovine serum (FBS) (Wang, Ossowski et al. 2004).\nSulforhodamine B (SRB) was used to estimate cell growth as described previously (Skehan, Storeng et al. 1990). Briefly, cells grown exponentially were aliquoted into 96-well plates at a density of 2,500 to 5,000 cells/200 μl per well in RPMI 1640 medium containing 10% FBS. After twenty-four hours, the cells were exposed to indicated concentrations of tested compounds for 72 hrs or otherwise as indicated. The cells were then fixed with 10% trichloride acetic acid for 2 h at 4° C. The 10% trichloride acetic acid was removed, and the dishes were washed 5 times with tape water, and air-dried. The fixed and dried cells were then stained with 0.4% SRB in 1% acetic acid for 25 min, and the dishes were washed 5 times with 1% acetic acid and air-dried overnight. 200 μl of 10 mM of Tris buffer (pH 10.0) were added, and the dishes were rotated to completely dissolve the color. Absorbance at 570 nm, with a reference wavelength 690 nm, was measured on a 96-well microplate reader (SPECTRO Star^Nano, BMG Labtech). Mean, standard deviation (SD) and the percent of growth inhibition at each concentration point of the treatment were calculated. The percent of growth inhibition as defined as (1−T/C)×100 where T is the mean of the absorbance at 570 nm from the treatment, and C from control (drug vehicle only). IC50 was calculated using Sigma-plot software by regression of growth-concentration curve from each drug treatment."}, "HCC827-OR16": {"test_system": "HCC827-OR16", "assay": "qRT-PCR expression of p21", "details": "HCC827-OR16, 24 h, q-RT-PCR", "description": "FIG. 10 depicts the effect of Reno647 on expressions of Caspase 3, Caspase 9 and p21 in HCC827-P and on Box, Bcl2, p53 and p21 in HCC827-OR16 cells. […] Total cellular RNA was extracted and cDNA was prepared followed by qRT-PCR using specific probes as described in the section of Materials and Methods. Tgene ΔCt value was normalized for GAPDH by calculating ΔCt=Ctgene−CtGAPDH per sample.\nHCC827 P or other indicated cells at exponential growth phase were treated with indicated concentrations of compounds for 24 hours. Total cellular RNA was prepared from lysed tumor cells using an RNA Purification kit (ThermoFisher Scientific). The first-strand of cDNA was synthesized using a High Capacity cDNA reverse transcription kit (ThermoFisher Scientific) in PTC-100 Peltier Thermal Cycler PCR. The resultant cDNA (0.5-1 μL) was used in a 10 μl reaction by using Taqman Universal PCR Master Mix (ThermoFisher Scientific). The pre-designed primers and probe were purchased from Life Technologies and used for qPCR. Human GAPDH was used as an internal control. qPCR was performed using Applied Biosystems StepOne and StepOnePlus Real-Time PCR Systems according manufacturer's instructions. An initial PCR denaturation step was performed at 95° C. for 20 seconds. […]"}, "[1]": {"details": "HCC827TR, ratio 200:1, 3 days + 3 days"}},
  "data": [
    {"smiles": "C#Cc1cccc(Nc2ncnc3cc(OCCOC)c(NC(=O)c4ccc(F)c([N+](=O)[O-])c4)cc23)c1", "note": "[Reno647, 4-Fluoro-N-[4-(3-ethynyl-phenylamino)-7-(2-methoxy-ethoxy)-quinazolin-6-yl]-3-nitro-benzamide]", "values": [
      {"measurement": "combination index (CI), Reno647 with Camptothecin", "setting": "HCC827 TR cells; HCC827 TR, ratio 1:1, concurrent, 3 days, at effective concentration", "value": "below 1"},
      {"measurement": "combination index (CI), Reno647 with Carboplatin", "setting": "HCC827 TR cells; HCC827 TR, ratio 1:50, concurrent, 6 days, at effective concentrations", "value": "below 1"},
      {"measurement": "combination index (CI), Reno647 first followed by Taxol", "setting": "HCC827 TR cells; [1]", "value": "> 1"},
      {"measurement": "combination index (CI), Taxol first followed by Reno647", "setting": "HCC827 TR cells; [1]", "value": "< 1"},
      {"measurement": "combination index (CI), Reno647 and Taxol concurrently", "setting": "HCC827 TR cells; HCC827TR, ratio 200:1, 6 days", "value": "< 1"},
      {"measurement": "activities against all tested cancer cells lines compared with NK-2206 and MLN8237", "setting": "tested cancer cell lines", "value": "better activities"},
      {"measurement": "p21 expression", "setting": "HCC827-OR16", "value": "significant induction"}
    ]}
  ]
}
